In PMC3492430, “In Vitro and In Vivo Activity of an Organic Tellurium Compound on Leishmania (Leishmania) chagasi” (PLoS ONE, 2012):

Biological target: T1, cathepsin B (cathepsin B-like cysteine protease) (Leishmania chagasi, UniProt Q9GQN7)
T1 construct: native enzyme in amastigote lysate
Assay: spectrofluorometric protease assay in amastigote lysate with cathepsin B-specific substrate Abz-Gly-Ile-Val-Arg-Ala-Lys(Dnp)-OH
Type: biochemical

T1 sequence (Q9GQN7 entry or part of it): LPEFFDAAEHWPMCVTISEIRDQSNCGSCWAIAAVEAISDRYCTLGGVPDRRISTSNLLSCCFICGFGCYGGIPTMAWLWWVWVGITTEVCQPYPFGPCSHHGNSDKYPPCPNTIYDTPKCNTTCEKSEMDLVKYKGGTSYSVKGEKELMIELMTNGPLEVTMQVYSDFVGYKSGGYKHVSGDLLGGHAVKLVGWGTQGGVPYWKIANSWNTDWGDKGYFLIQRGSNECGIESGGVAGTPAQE

Compound | IC50 [µM]
COc1ccc([Te]2(Cl)OC3(CCCCC3)/C2=C\Cl)cc1 (centres unmarked) [RF07, 4-{2-Chloro-3-[chloromethylidene]-1-oxa-2-λ^4-telluraspiro[3.5]non-2-yl}phenyl Methyl Ether] | 4.47 ± 0.13
CCCNC(=O)[C@H]1O[C@@H]1C(=O)N[C@H](C(=O)N1CCC[C@H]1C(=O)O)[C@@H](C)CC [CA074] | 2.41 ± 0.15
